# In US7268232B2 (Acadia Pharmaceuticals Inc., priority 2004, dated 2007):
# pEC50: −log10 of the molar value. Structures can show the parent of a compound that is named as a salt.
# Columns and labels:
# Androgen AR receptor = molecular target: T1, Androgen AR receptor (Homo sapiens, UniProt P10275); assay: Receptor Selection and Amplification (R-SAT) assay, androgen receptor agonist activity; format: cell-based; conditions: for Emax: NIH3T3, read-out: % Efficacy
# T1 construct: expressed in transfected cells; host or cells: NIH3T3 cells
# T1 sequence (P10275 1-920): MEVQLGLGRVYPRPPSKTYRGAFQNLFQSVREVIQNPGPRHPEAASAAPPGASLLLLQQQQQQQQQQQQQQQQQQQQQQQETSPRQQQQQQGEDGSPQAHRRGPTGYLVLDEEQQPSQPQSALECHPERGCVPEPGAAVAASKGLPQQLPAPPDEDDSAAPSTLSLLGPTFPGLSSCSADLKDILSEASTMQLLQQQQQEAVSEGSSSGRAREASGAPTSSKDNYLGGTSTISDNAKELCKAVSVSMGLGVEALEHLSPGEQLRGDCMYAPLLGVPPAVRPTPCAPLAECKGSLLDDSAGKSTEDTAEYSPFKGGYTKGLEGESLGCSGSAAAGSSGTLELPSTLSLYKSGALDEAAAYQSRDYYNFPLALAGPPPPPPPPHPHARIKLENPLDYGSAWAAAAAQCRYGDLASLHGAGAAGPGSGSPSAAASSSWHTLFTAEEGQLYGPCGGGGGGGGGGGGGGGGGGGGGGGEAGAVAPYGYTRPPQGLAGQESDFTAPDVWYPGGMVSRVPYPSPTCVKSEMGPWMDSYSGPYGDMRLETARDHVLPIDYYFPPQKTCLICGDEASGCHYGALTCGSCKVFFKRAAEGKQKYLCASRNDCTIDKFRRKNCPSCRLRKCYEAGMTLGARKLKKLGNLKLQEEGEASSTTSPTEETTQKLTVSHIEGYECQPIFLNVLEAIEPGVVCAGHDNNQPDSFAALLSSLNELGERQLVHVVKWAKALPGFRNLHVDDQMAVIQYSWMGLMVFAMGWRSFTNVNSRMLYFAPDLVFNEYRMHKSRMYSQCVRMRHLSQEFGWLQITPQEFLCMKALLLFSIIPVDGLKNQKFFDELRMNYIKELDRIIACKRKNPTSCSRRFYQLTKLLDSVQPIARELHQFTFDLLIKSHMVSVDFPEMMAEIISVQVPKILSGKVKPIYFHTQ
# Method: Receptor Selection and Amplification (R-SAT) Assays. The functional receptor assay, Receptor Selection and Amplification Technology (R-SAT™), was used with minor modifications from the procedure described previously (Brann, M. R. U.S. Pat. No. 5,707,798, 1998) to screen compounds for efficacy at the Androgen AR receptor. Briefly, NIH3T3 cells were grown in roller bottles to 70-80% confluence. Cells were then transfected for 12-16 h with plasmid DNAs using Polyfect (Qiagen Inc.) as per the manufacturer's protocol. R-SAT assays were typically performed by transfecting 30 ug/bottle of receptor and 50 ug/bottle of β-galactosidase plasmid DNA. All receptor and helper constructs used were in mammalian expression vectors. Helpers are defined as signaling molecules that modulate both ligand-dependent and/or ligand-independent function of the AR receptor, typically co-activators. NIH3T3 cells were transfected for 12-16 h, then trypsinized and frozen in DMSO. Frozen cells were later thawed, plated at 10,000-40,000 cells per well of a 96 well plate containing drug. Cells were then grown in a humidified atmosphere with 5% ambient CO2 for five days. Media was then removed from the plates and marker gene activity was measured by the addition of the β-galactosidase substrate o-nitrophenyl β-D-galactopyranoside (ONPG, in PBS with 5% NP-40). The resulting colorimetric reaction was measured in a spectrophotometric plate reader (Titertek Inc.) at […]. All data were analyzed using the computer program XLFit (IDBSm).
# [1] = test system: castrated male Sprague Dawley rats; assay: Wet tissue weights (prostate, seminal vesicle, levator ani muscle) after daily s.c. administration for two weeks; format: in vivo, rat; conditions: for wet weight of prostate / wet weight of seminal vesicle: castrated rats
# Method: (§1) Androgen Receptor agonist 116BG33 was administered s.c. daily for two weeks to castrated male Sprague Dawley rats (n=3). The effects of 116BG33 (3, 10, 30 mg/kg) were compared to testosterone propionate (0.1 and 1 mg/kg; positive control) and vehicle (10% Tween80; negative control). Blood and wet weights of prostate gland and seminal vesicle were measured after sacrifice that occurred 24 hours after the last dose. Blood was collected in heparin collection tubes after sacrifice that occurred 24 hours after the last dose. Blood was centrifuged and plasma collected and plasma samples frozen.
# [2] = test system: castrated male Sprague Dawley rats; assay: Rat luteinizing hormone (LH) plasma levels by ELISA after daily s.c. administration for 14 days; format: in vivo; conditions: for dose at which complete reversal of plasma LH levels is evident: s.c. daily for 14 days
# Method: as §1
# Rat luteinizing hormone (LH) plasma levels were determined using an enzyme linked immunoabsorbent assay (ELISA) from Amersham as per manufacturer's instructions. The solid phase assay is based on the competition between unlabeled rLH and a fixed quantity of biotin labelled rLH for a limited amount of rLH specific antibody. A conjugate streptavidin/peroxidase allows for signal amplification and detection in presence of the substrate.
# [3] = 3, 10 or 30 mg/kg s.c. daily for two weeks, compared to vehicle
# [4] = 0.1 mg/kg s.c. daily for two weeks, compared to vehicle
# [5] = 1 mg/kg s.c. daily for two weeks, compared to vehicle
smiles,measurement,setting,value
CC1CCC(C)N1c1ccc([N+](=O)[O-])c2ccccc12 (stereo not drawn),pEC50,Androgen AR receptor,8.10
same,Emax,Androgen AR receptor,94%
"N#Cc1ccc(N2[C@@H]3CC[C@H]2CC(NCCc2c[nH]cn2)C3)c2ccccc12 (mixture of isomers) [156AF11-229, 4-{3-[2-(1H-Imidazol-4-yl)ethylamino]-8-azabicyclo[3.2.1]oct-8-yl}naphthalene-1-carbonitrile, dihydrochloride]",pEC50,Androgen AR receptor,6.80
same,Emax,Androgen AR receptor,44%
"O=[N+]([O-])c1ccc(N2CCCC2)c2ccccc12 [116BG33, 1-(4-Nitronaphthalen-1-yl)pyrrolidine]",wet weight of prostate,[1]; [3],did not have any effect
same,wet weight of seminal vesicle,[1]; [3],did not have any effect
same,dose at which complete reversal of plasma LH levels is evident,[2],30 mg/kg
same,plasma LH levels,"[2]; sub-cutaneous, 3, 10, 30 mg/kg, 14 days",reduces LH levels to physiological norms
"N#Cc1ccc(N2CCCCC2)c2ccccc12 [136BG73-10, 4-Piperidin-1-ylnaphthalene-1-carbonitrile]",pEC50,Androgen AR receptor,8.10
same,Emax,Androgen AR receptor,66%
"N#Cc1ccc(N2CCC(O)C2)c2ccccc12 (stereo not drawn) [136BG85-2, 4-(3-Hydroxypyrrolidin-1-yl)naphthalene-1-carbonitrile]",pEC50,Androgen AR receptor,7.10
same,Emax,Androgen AR receptor,41%
"N#Cc1ccc(N2[C@@H]3CC[C@H]2CC(O)C3)c2ccccc12 (stereo partly drawn) [154BG31, 4-(3-endo-Hydroxy-8-azabicyclo[3.2.1]oct-8-yl)naphthalene-1-carbonitrile]","wet tissue weights (prostate, seminal vesicle, levator ani muscle)",[1]; 3 mg/kg s.c. daily for two weeks,did not appear to significantly alter
same,dose relative to TP at which negative side effects (increased seminal vesicle and prostate size) become evident,[1]; compared to TP,at least 100 × of TP
same,"wet tissue weights (prostate, seminal vesicle, levator ani muscle)","[1]; higher doses (3 and 10 mg/kg) daily, not to the extent of TP",appeared to significantly increase
same,dose at which complete reversal of plasma LH levels is evident,[2],10 mg/kg
same,plasma LH levels,"[2]; various doses, s.c. for 14 days",dose-dependent suppression
"N#Cc1ccc(N2C3CCC2CC(OC(=O)CCN2CCOCC2)C3)c2ccccc12 (stereo not drawn) [156AF32-246, 3-Morpholin-4-ylpropionic acid endo-8-(4-cyanonaphthalen-1-yl)-8-azabicyclo[3.2.1]oct-3-yl ester, hydrochloride]",pEC50,Androgen AR receptor,7.40
same,Emax,Androgen AR receptor,57%
"CC1(O)CC2CCC(C1)N2c1ccc(C#N)c2ccccc12 (stereo not drawn) [156AF70-267, 4-(3-Endo-hydroxy-3-exo-methyl-8-azabicyclo[3.2.1]oct-8-yl)naphthalene-1-carbonitrile]",pEC50,Androgen AR receptor,8.70
same,Emax,Androgen AR receptor,88%
"CC1C=CC(C)N1c1ccc(C#N)c2ccccc12 (stereo not drawn) [196MBT2-7, 4-(2,5-Dimethyl-2,5-dihydropyrrol-1-yl)naphthalene-1-carbonitrile]",pEC50,Androgen AR receptor,8.10
same,Emax,Androgen AR receptor,85%
CCC(=O)O[C@H]1CC[C@H]2[C@@H]3CCC4=CC(=O)CC[C@]4(C)[C@H]3CC[C@]12C [testosterone propionate],wet weight of prostate,[1]; [4],did not have any effect
same,wet weight of seminal vesicle,[1]; [4],did not have any effect
same,wet weight of prostate,[1]; [5],significant increases
same,wet weight of seminal vesicle,[1]; [5],significant increases
same,wet weight of levator ani muscle,[1]; [5],significant increases
same,plasma LH levels,"[2]; 1 mg/kg, s.c. for 14 days, versus naive rats",restored LH levels to those obtained in naive rats
same,plasma LH levels,"[2]; chronic administration (14 days), 0.1 and 1 mg/kg, versus naive animals",dose dependent reversal
